This passage reports IC50 results from patent US5414000A, “Antiviral pyrinyl substituted tetrahydropyrans” (Bristol-Myers Squibb Co., priority 1994, dated 1995).

Holding throughout (format): cell-based
For experiment [1], the system named is HCMV (human cytomegalovirus, strain AD 169). Description: HCMV antiviral plaque reduction assay in WI-38 cell culture. Conditions: Human betaherpesvirus 5; HCMV strain AD 169; WI-38 monolayers; at least 50% plaque reduction vs virus controls; 5-7 days at 37° C.; read-out: ID50 HCMV. On the procedure:
(§1) Assays were performed in cell culture systems to determine the concentrations of compounds that are effective in preventing several kinds of viral infections. Abbreviations:
(§2) HSV-1 (herpes simplex virus type 1, strain Schooler), HSV-2 (herpes simplex virus type 2, strain 186), VZV (varicella zoster virus, strain ELLEN), HCMC (human cytomegalovirus, strain AD 169). Cell Culture Assays:
(§3) HSV-1, HSV-2, HCMV and VZV antiviral assays: Virus was adsorbed to WI-38 cell culture monolayers in 5 well culture plates (Costar, Cambridge, Mass.) for 1 hour prior to addition of maintenance medium containing duplicate dilutions of the test compound. Inhibition of plaque development was evaluated on fixed and stained monolayers after 4 days incubation at 37° C. for HSV-1 and HSV-2, and after 5-7 days incubation at 37° C. for HCMV and VZV. ID50 values were determined from the drug concentration which conferred at least a 50% plaque reduction compared to virus controls.
(Plaques are areas of infected cells; plaque reduction assays count them against a control.)

In experiment [2] the test system is HSV-2 (herpes simplex virus type 2, strain 186). Description: HSV-2 antiviral plaque reduction assay in WI-38 cell culture. Conditions: Human alphaherpesvirus 2, 96 h; HSV-2 strain 186; WI-38 monolayers; at least 50% plaque reduction vs virus controls; 4 days at 37° C.; read-out: ID50 HSV-2. As for the experimental part:
as §1, §2, §3

The test system of experiment [3] is HSV-1 (herpes simplex virus type 1, strain Schooler). Briefly: HSV-1 antiviral plaque reduction assay in WI-38 cell culture. Conditions: Human alphaherpesvirus 1, 96 h; HSV-1 strain Schooler; WI-38 monolayers; at least 50% plaque reduction vs virus controls; 4 days at 37° C.; read-out: ID50 HSV-1. As for the experimental part: as §1, §2, §3
In experiment [4] the test system is VZV (varicella zoster virus, strain ELLEN). Briefly: VZV antiviral plaque reduction assay in WI-38 cell culture. The conditions noted are these: Human alphaherpesvirus 3, WI-38 monolayers, at least 50% plaque reduction vs virus controls, 5-7 days at 37° C., read-out: ID50 VZV. On the procedure: as §1, §2, §3

On to `O=c1[nH]c(=O)n([C@@H]2CO[C@H](CO)[C@@H](O)C2)cc1I` [Example 4, [3S-(3α, 5β, 6α)]-5-Iodo-1-[tetrahydro-5-hydroxy-6-(hydroxymethyl) -2H-pyran-3-yl]-2,4 (1H, 3H) -pyrimidinedione], for which the IC50 in experiment [1] is greater than 272 µM; in experiment [2], 3 to 5.4 µM; in experiment [3] it was 0.3 to 1.4 µM; in experiment [4], 68 to 272 µM.

In the case of `Nc1nc2c(ncn2[C@@H]2CO[C@H](CO)[C@@H](O)C2)c(=O)[nH]1` [Example 1, [3S-(3α, 5β, 6α)]-2-Amino-1,9-dihydro-9-[tetrahydro-5-hydroxy-6-(hydroxymethyl)-2H-pyran-3-yl]-6H-purin-6-one], the IC50 in experiment [1] is 18 to 36 µM; in experiment [2] it was 18 µM; in experiment [3] it was 18 µM; in experiment [4], 18 to 36 µM.

With `Nc1ccn([C@@H]2CO[C@H](CO)[C@@H](O)C2)c(=O)n1` [Example 3, [3S-(3α, 5β, 6α)]-4-Amino-1-[tetrahydro-5-hydroxy-6-(hydroxymethyl) -2H-pyran-3-yl]-2-(1H) -pyrimidinone], the IC50 in experiment [1] was 2 µM; in experiment [2] it was 0.4 to 0.8 µM; in experiment [3], 0.4 to 0.8 µM; in experiment [4] it was 4 to 8 µM.

On to `Nc1ncnc2c1ncn2[C@@H]1CO[C@H](CO)[C@@H](O)C1` [Example 2, [2R-(2α, 3β, 5α)]-5-(6-Amino-9H-purin-9yl)tetrahydro-3-hydroxy-2H-pyran-2-methanol], for which the IC50 in experiment [1] is 4 to 38 µM; in experiment [2] it was 8 to 19 µM; in experiment [3], 8 to 19 µM; in experiment [4], 38 µM.

For `Cc1cn([C@@H]2CO[C@H](CO)[C@@H](O)C2)c(=O)[nH]c1=O` [Example 5, [3S-(3α, 5β, 6α)]-5-Methyl-1-[tetrahydro-5-hydroxy-6-(hydroxymethyl)-2H-pyran-3-yl]-2,4 (1H, 3H)-pyrimidinedione], the IC50 in experiment [1] is no less than 390 µM; in experiment [2], greater than 390 µM; in experiment [3], 390 µM; in experiment [4], 39 to 390 µM.

Turning to `O=c1[nH]c(=O)n([C@@H]2CO[C@H](CO)[C@@H](O)C2)cc1/C=C/Br` [Example 6], the IC50 is greater than 288 µM in experiment [1], greater than 288 µM in experiment [2], 29 to 72 µM in experiment [3] and 5.7 to 14.5 µM in experiment [4].
